According to patent US20080096958A1, “Antibacterial Composition” (priority 2004, published 2008):
In brackets after ≈: the same amount, converted by molar mass. Read-outs that look alike come from different tables or passages of the source.

Key:
Type in all cases: cell-based
[1] = system: Staphyrococcus epidermidis var. h-6; assay: MIC by Agar Dilution Test, Se-2; settings: read-out: Minimum inhibitory concentration (MIC)
Protocol: (§1) Minimum inhibitory concentration (MIC) was determined by Agar Dilution Test (ADT).
(§2) Each antibacterial composition obtained in Example 1 was dissolved in ethanol or water (according to solubility of each antibacterial composition) to carry out two-fold serial dilution. A hundred μl of the resultant was added to a 10 ml sterilized agar medium (skin-related bacteria and standard bacteria in Mueller-Hinton Medium (Difco), yeast and filamentous bacteria in Sabroud Medium (Difco) and anaerobic bacteria in Trypticase Soy agar (BBL)), well agitated, transferred to a 9 cmf petri dish and immobilized at room temperature. To this petri dish, a 27-spot microplanter MIT-P from Sakuma Seisakusho, LTD. was used to spot 1×10^5 cfu (colony forming unit) of skin-related bacteria and standard bacteria, and the resultants were cultured at 37° C. for 18 hours. Anaerobic bacteria are cultured at 37° C. for 72 hours under anaerobic conditions (using BBL gas pack anaerobic system). After completion of cultivation, growth of each bacterium was compared with that in a petri dish with alcohol alone (blank). A concentration of a sample without a bacterium growth was determined as the minimum inhibitory concentration (MIC).
(§3) As comparative substances, butylparaben (BPHB) and triclosan were determined as well.

[2] = system: Corynebacterium xerosis JCM 1324; assay: MIC by Agar Dilution Test, Cx-2; settings: read-out: Minimum inhibitory concentration (MIC)
Protocol: as §1, §2, §3

[3] = system: Staphyrococcus epidermidis ATCC 12228; assay: MIC by Agar Dilution Test, Se-3; settings: read-out: Minimum inhibitory concentration (MIC)
Protocol: as §1, §2, §3

[4] = system: Malassezia furfur IFO 0656; assay: MIC by Agar Dilution Test, Mf-1; settings: read-out: Minimum inhibitory concentration (MIC)
Protocol: as §1, §2, §3

[5] = system: Bacillus subtilis PCI 219 IFO 3134; assay: MIC by Agar Dilution Test, Bs-1; settings: read-out: Minimum inhibitory concentration (MIC)
Protocol: as §1, §2, §3
(§4) Minimum inhibitory concentration was determined by Agar Dilution Test described in Example 3 to confirm the difference of antibacterial activities at different mixture ratios.

[6] = system: Staphyrococcus aureus ATCC 6538; assay: MIC by Agar Dilution Test, Sa-4; settings: read-out: Minimum inhibitory concentration (MIC)
Protocol: as §1, §2, §3, §4

[7] = system: Staphyrococcus aureus 209P IAM 12082; assay: MIC by Agar Dilution Test, Sa-3; settings: read-out: Minimum inhibitory concentration (MIC)
Protocol: as §1, §2, §3

[8] = system: Staphyrococcus epidermidis JCM 2414; assay: MIC by Agar Dilution Test, Se-1; settings: read-out: Minimum inhibitory concentration (MIC)
Protocol: as §1, §2, §3

[9] = system: Bacteroides fragilis GM 7000 JCM 5560; assay: MIC by Agar Dilution Test, Bf-1; settings: read-out: Minimum inhibitory concentration (MIC)
Protocol: as §1, §2, §3, §4

[10] = system: Actinomyces viscosus JCM 8352; assay: MIC by Agar Dilution Test, Av-1; settings: read-out: Minimum inhibitory concentration (MIC)
Protocol: as §1, §2, §3

[11] = system: Propionibacterium acnes JCM 6473; assay: MIC by Agar Dilution Test, Pa-2; settings: Cutibacterium acnes, read-out: Minimum inhibitory concentration (MIC)
Protocol: as §1, §2, §3

[12] = system: Prevotella intermedia JCM 6322; assay: MIC by Agar Dilution Test, Pt-1; settings: read-out: Minimum inhibitory concentration (MIC)
Protocol: as §1, §2, §3, §4

[13] = system: Porphyromonas gingivalis JCM 8525; assay: MIC by Agar Dilution Test, Pg-1; settings: read-out: Minimum inhibitory concentration (MIC)
Protocol: as §1, §2, §3

[14] = system: Fusobacterium nucleatum JCM 6328; assay: MIC by Agar Dilution Test, Fn-1; settings: read-out: Minimum inhibitory concentration (MIC)
Protocol: as §1, §2, §3

[15] = system: Actinomyces naeslundii JCM 8350; assay: MIC by Agar Dilution Test, Aa-1; settings: read-out: Minimum inhibitory concentration (MIC)
Protocol: as §1, §2, §3

[16] = system: Alicyclobacillus Acidoterrestris (NCIMB); assay: MIC using heat-resistant acidophilic bacteria (liquid medium, turbidity); settings: spores in AAM liquid medium, 50° C., 10 days; growth inhibited in all five media
Protocol: (§5) Spores of Alicyclobacillus Acidocaldarius (NCIMB) and Alicyclobacillus Acidoterrestris (NCIMB) were diluted with buffered saline to 1-2 million/100 μl, heated at 80° C. for 10 minutes, and added for 100 μl each per 5 ml of AAM (Alicyclobacillus Acidoterrestris medium) liquid medium. To the test media prepared as above, antibacterial composition (A) obtained in Example 1 was added according to the following steps. Twenty mg/ml, 10 mg/ml, 5 mg/ml and 2.5 mg/ml antibacterial composition (A) in grapefruit flavors were added to respective media (0.1%) (final concentration of antibacterial composition (A): 20 ppm, 10 ppm, 5 ppm and 2.5 ppm). As controls, a medium with 0.1% grapefruit flavor and a blank medium were prepared to confirm that the bacteria grow without a problem. The thus-prepared media were cultured at 50° C. for 10 days, bacteria growth was determined based on the turbidity of the media associated with proliferation of bacteria, thereby checking growth control effects. For each test bacterium and each sample, five media were subjected to the experiment, and a concentration at which bacteria in every media were inhibited was determined as the minimum inhibitory concentration (MIC).
(§6) For comparison, sucrose fatty acid ester was also determined.

[17] = system: Alicyclobacillus Acidocaldarius (NCIMB); assay: as above; settings: spores in AAM liquid medium, 50° C., 10 days; growth inhibited in all five media
Protocol: as §5, §6

[18] = Se-2, Mueller-Hinton agar, 37° C., 18 hours
[19] = JCM1324, Cx-2, Mueller-Hinton agar, 37° C., 18 hours
[20] = JCM5560, Bf-1, Trypticase Soy agar, 37° C., 72 hours, anaerobic
[21] = JCM8352, Av-1, Trypticase Soy agar, 37° C., 72 hours, anaerobic
[22] = Se-3, Mueller-Hinton agar, 37° C., 18 hours
[23] = Mf-1 (yeast), Sabroud Medium agar
[24] = JCM6473, Pa-2, Trypticase Soy agar, 37° C., 72 hours, anaerobic
[25] = JCM6322, Pt-1, Trypticase Soy agar, 37° C., 72 hours, anaerobic
[26] = IFO3134, Bs-1, Mueller-Hinton agar, 37° C., 18 hours
[27] = JCM8525, Pg-1, Trypticase Soy agar, 37° C., 72 hours, anaerobic
[28] = Sa-4, Mueller-Hinton agar, 37° C., 18 hours
[29] = Sa-3, Mueller-Hinton agar, 37° C., 18 hours
[30] = Se-1, Mueller-Hinton agar, 37° C., 18 hours
[31] = JCM6328, Fn-1, Trypticase Soy agar, 37° C., 72 hours, anaerobic
[32] = JCM8350, Aa-1, Trypticase Soy agar, 37° C., 72 hours, anaerobic

Molecule	MIC ([1]; 18 h)	MIC ([2]; JCM1324, 18 h)	MIC ([3]; 18 h)	MIC [4]	MIC ([5]; IFO3134, 18 h)	MIC ([6]; 18 h)	MIC ([7]; 18 h)	MIC ([8]; 18 h)	MIC [1, 18]	MIC [2, 19]	MIC [9, 20]	MIC [10, 21]	MIC [3, 22]	MIC [4, 23]	MIC [11, 24]	MIC [12, 25]	MIC [5, 26]	MIC [13, 27]	MIC [6, 28]	MIC [7, 29]	also measured
Oc1cc(Cl)ccc1Oc1ccc(Cl)cc1Cl [Triclosan, triclosan, reference compound]	1.6 µg/mL (≈ 5.53 µM)	3.1 µg/mL (≈ 10.7 µM)	1.6 µg/mL (≈ 5.53 µM)	1.6 µg/mL (≈ 5.53 µM)	0.78 µg/mL (≈ 2.69 µM)	1.6 µg/mL (≈ 5.53 µM)	1.6 µg/mL (≈ 5.53 µM)	1.6 µg/mL (≈ 5.53 µM)													
CC(C)=CCC/C(C)=C\Cc1c2occc2c(O)c2ccc(=O)oc12 [Antibacterial composition (G), 9-(3′,7′-dimethyl-2′,6′-octadienyl)-4-hydroxy-7H-furo[3,2-γ][1]benzopyran-7-one]									200 µg/mL (≈ 591 µM)	200 µg/mL (≈ 591 µM)	100 µg/mL (≈ 296 µM)	100 µg/mL (≈ 296 µM)	200 µg/mL (≈ 591 µM)	50 µg/mL (≈ 148 µM)	100 µg/mL (≈ 296 µM)	100 µg/mL (≈ 296 µM)	200 µg/mL (≈ 591 µM)	50 µg/mL (≈ 148 µM)	200 µg/mL (≈ 591 µM)	100 µg/mL (≈ 296 µM)	MIC [8, 30]: 200 µg/mL (≈ 591 µM); MIC [14, 31]: 50 µg/mL (≈ 148 µM); MIC [15, 32]: 200 µg/mL (≈ 591 µM)
CCCCOC(=O)c1ccc(O)cc1 [Butylparaben, butylparaben, reference compound]	200 µg/mL (≈ 1030 µM)	50 µg/mL (≈ 257 µM)	200 µg/mL (≈ 1030 µM)	100 µg/mL (≈ 515 µM)	200 µg/mL (≈ 1030 µM)	200 µg/mL (≈ 1030 µM)	100 µg/mL (≈ 515 µM)	200 µg/mL (≈ 1030 µM)													MIC ([9]; JCM5560, 72 h): 50 µg/mL (≈ 257 µM); MIC ([10]; JCM8352, 72 h): 100 µg/mL (≈ 515 µM); MIC ([11]; JCM6473, 72 h): 100 µg/mL (≈ 515 µM); MIC ([12]; JCM6322, 72 h): 100 µg/mL (≈ 515 µM); MIC ([13]; JCM8525, 72 h): 50 µg/mL (≈ 257 µM); MIC ([14]; JCM6328, 72 h): 100 µg/mL (≈ 515 µM); MIC ([15]; JCM8350, 72 h): 100 µg/mL (≈ 515 µM)
COc1cc(O)c2ccc(=O)oc2c1C/C=C(/C)CCC=C(C)C [Antibacterial composition (F), 8-(3′,7′-dimethyl-2′,6′-octadienyl)-5-hydroxy-7-methoxy-2H-1-benzopyran-2-one]									200 µg/mL (≈ 609 µM)	200 µg/mL (≈ 609 µM)	100 µg/mL (≈ 304 µM)	25 µg/mL (≈ 76.1 µM)	200 µg/mL (≈ 609 µM)	25 µg/mL (≈ 76.1 µM)	25 µg/mL (≈ 76.1 µM)	100 µg/mL (≈ 304 µM)	200 µg/mL (≈ 609 µM)	25 µg/mL (≈ 76.1 µM)	200 µg/mL (≈ 609 µM)	25 µg/mL (≈ 76.1 µM)	MIC [8, 30]: 200 µg/mL (≈ 609 µM); MIC [14, 31]: 25 µg/mL (≈ 76.1 µM); MIC [15, 32]: 25 µg/mL (≈ 76.1 µM)
sucrose fatty acid ester																					Minimum inhibitory concentration (MIC) [16]: 20 ppm; Minimum inhibitory concentration (MIC) [17]: 20 ppm
